Experiment [1] relates to conjugated diene formation in rat brain synaptosomes. Description: Conjugated diene formation assay (lipid peroxidation). The format is biochemical. As to conditions: 100 μM (or less) of the drug, active = 50% inhibition or more. As to the method:
The formation of conjugated dienes as assayed by Braughler. […] Bucher, Fund.
Synaptosomal suspension (10 μl) is added to 1 ml of physiological (normal) saline containing 1% Lubrol PX (Sigma Chemical Co. St. Louis, Mo.). […] The reaction is started by the rapid addition of 200 μM ferrous ammonium sulfate prepared in argon-purged water. The sample is rapidly mixed and the change in absorbance at 232nm is followed in a Gilford Response Spectrophotometer equipped with a rapid sampler. Due to the rapidity of the reaction, rapid addition of the iron, rapid mixing and sampling are obligatory to the accuracy of the assay. For best results absorbance readings of one/sec should be started within 5 sec following the addition of iron. The initial linear rate of absorbance change during the first 30 sec of reaction are compared with the rate of a reaction containing all reagents except synaptosomes. The difference in rates is the rate of conjugated diene formation. Rates with drug are compared to rates obtained in the absence of drug and the % inhibition is calculated.

Experiment [2] deals with interleukin-1. Put plainly: inhibition of interleukin-1 induced T cell proliferation assay. The format is cell-based. As to conditions: active = >30% at 10^-6 M. From the text:
The inhibition of interleukin-1 induced T cell proliferation assay, Proc. Nat. […] Since people with arthritis make excess interleukin 1, compounds which inhibit the activity of interleukin 1 are useful in the treatment of arthritis. According to this procedure compounds which inhibit the activity of interleukin 1 greater that 30% at 10^-6 M are considered to be "active".

Experiment [3] relates to MDA formation in rat brain synaptosomes. Description: Malonyldialdehyde (MDA) Formation Assay (lipid peroxidation). As to conditions: active = 50% inhibition or more at 200 μM or less. Type of experiment: biochemical. From the text: The MDA assays of Buege and Aust, Methods in Enzymology, Fleisher and Packer Editors. Academic Press, 1978, New York, Vol LII, p 302-310 and Kohn and Liversedge, J. Pharmacol. Exp. Ther. 82. […] Since iipid peroxidation is involved in the pathophysiology of central nervous system trauma, compounds which inhibit MDA formation are useful in treating the conditions listed below.
While not necessary to determine MDA formation, the above assays have been modified as follows: rat brain synaptosomes are prepared as described in the Example about the conjugated diene assay, except that the final wash of the synaptosomes and final suspension are in physiological (normal) saline in which the pH has been adjusted to 7 0. The synaptosomes are incubated for 10 min at 37° in physiological (normal) saline pH 7.0 (total volume=100 ul) containing; 10 ul synaptosomal suspension. 10% DMSO plus or minus drug. 150 uM Fe^+++ and 50 uM Fe^++. The incubation is started by the rapid addition of iron to the otherwise complete reaction. The iron solutions are prepared fresh as ferric chloride and ferrous ammonium sulfate in argon-purged water. Following the 10 min incubation, the reaction is stopped by the addition of 500 ul ice-cold 12% trichloroacetic acid prepared in 0.5 N hydrochloric acid. Water (300 ul) is then added along with 100 ul of freshly prepared thiobarbituric acid (3.3% in 0.5N sodium hydroxide) and 10 ul of 5mM desferrioxamine. The sample is then heated in a boiling water bath for 20 minutes. The samples are cooled and centrifuged for 15 minutes at 1500 xg and the absorbance of the supernatant fraction is read at 532 nm. The % inhibition of MDA formation is calculated by dividing the absorbance of sample containing drug by the absorbance of samples incubated without drug. Reaction blanks are samples incubated in the absence of iron A compound that inhibits MDA formation by 50% or more at a concentration of 200μM or less is considered "active".

Experiment [4] concerns angiogenesis. Put plainly: fertile egg or chick embryo assay of Folkman (inhibition of angiogenesis / tumor growth). Type of experiment: in vivo. Particulars: chick embryo; for inhibition of angiogenesis: 50 μg/10 μl with heparin, avascular zone 4 mm or greater. As for the experimental part:
According to this procedure compounds which are considered to be "active" (i.e, antiangiogenic) give an avascular zone of 4 mm or greater in some embryos when tested at 50 μg/10 μl in the presence of 50 μg/10 μ of heparin.

For experiment [5], the system named is induced mucous secretions. Put plainly: inhibition of mucous secretion assay of Johnson. Particulars: for inhibition of mucous secretion: inhibit or block enhancement of induced mucous secretions; for preferred mucous inhibitors per test results: ranking in words. From the text: The inhibition of mucous secretion assay of Johnson Int. […] According to this procedure compounds which inhibit or block enhancement of induced mucous secretions when tested are considered to be "active".

Experiment [6] concerns arachidonic acid. Put plainly: Arachidonic Acid Antagonism Assay (AAAA). Type of experiment: in vivo, mouse (Charles River male CF-1). As to conditions: mice; IV, 15 min before sodium arachidonate; outside 95% confidence interval of control LD50. As to the method:
While not necessary to determine arachidonic acid antagonism, the above assay has been modified as follows: Charles River male CF-1 mice weighing […] are treated IV with the test compound dissolved in 1.0% Tween-80 and 0.1% hydrochloric acid in distilled water. 0 2 ml total volume. Fifteen minutes later sodium arachidonate (90% pure) in physiological (normal) […] is injected into the tail vein. The LD50 is measured using the Spearman-Karber method with a log dose interval of 0.05 (N-6). Compounds which elevate the LD50 outside of the 95% confidence interval of the control LD50 are considered to be "active".

Structures can show the parent of a compound that is named as a salt.

On to `CS(=O)(=O)O.CS(=O)(=O)O.C[C@@H]1C[C@H]2[C@@H]3CCC4=CC(=O)C=C[C@]4(C)C3=CC[C@]2(C)[C@H]1C(=O)CN1CCN(c2cc(N3CCCC3)nc(N3CCCC3)n2)CC1` [Example 83, 16α-Methyl-21-[4-(2,6-bis(1-pyrrolidinyl)-4-pyrimidinyl]-1-piperazinyl]pregna-1,4,9(11)-triene-3,20-dione dimethane-sulfonate], for which the “inhibition of conjugated diene formation” value in experiment [1] was “demonstrate such activity”. The “inhibition of interleukin 1” value in experiment [2] is listed as “demonstrate inhibition of interleukin 1”. For the same compound, the “inhibition of MDA formation” value in experiment [3] was “demonstrate such activity”. Moreover, the inhibition of angiogenesis entry in experiment [4] was “demonstrate inhibition of angiogenesis”. Also, in experiment [5], the “inhibition of mucous secretion” value is listed as “demonstrate such activity” and the “preferred mucous inhibitors per test results” value is “preferred mucous inhibitors”.
Consider `CCN(CC)c1cc(N2CCN(CC(=O)[C@@]3(O)CC[C@H]4[C@@H]5CCC6=CC(=O)CC[C@]6(C)C5=CC[C@@]43C)CC2)nc(N)n1` [Example 4, 21-[4-[2.Amino-6-(diethylamino)-4-pyrimidinyl]1-piperazinyl]-17α-hydroxypregna-4,9(11)-diene-3,20-dione], for which, in experiment [6], the “arachidonic acid antagonism (elevation of LD50 of arachidonic acid)” value (shortened to “arachidonic acid antagonism”) is given as “demonstrate arachidonic acid antagonism”. In addition, the “inhibition of conjugated diene formation” value in experiment [1] is “demonstrate such activity”. In experiment [5], the “inhibition of mucous secretion” value is given as “demonstrate such activity”.
For `C[C@H]1C[C@@H]2C(=CC[C@@]3(C)[C@H]2CC[C@]3(O)C(=O)CN2CCN(c3cc(N4CCCC4)nc(N4CCCC4)n3)CC2)[C@@]2(C)C=CC(=O)C=C12` [Example 47, 17α-hydroxy-6α-methyl-21-[4-[2,6-bis(1-pyrrolidinyl)-4-pyrimidinyl-1-piperazinyl)pregna-1,4,9(11)-triene-3,20-dione,(E)-2-butenodioate salt], in experiment [6], the “arachidonic acid antagonism” value is given as “demonstrate arachidonic acid antagonism”. Besides, the “inhibition of conjugated diene formation” value in experiment [1] is listed as “demonstrate such activity”. The “inhibition of interleukin 1” value in experiment [2] is reported as “demonstrate inhibition of interleukin 1”. In addition, the “inhibition of MDA formation” value in experiment [3] is given as “demonstrate such activity”.
As for `C[C@]12CCC(=O)C=C1CC[C@@H]1C2=CC[C@@]2(C)[C@H]1CC[C@]2(O)C(=O)CN1CCC(O)(c2ccc(C(F)(F)F)cc2)CC1` [Example 5, 17α-Hydroxy-21-[4-hydroxy-4 (4-trifiuoromethyl)phenyl 1-piperidinyl]pregna-4,9(11)-diene-3 20-dione], in experiment [1], the “inhibition of conjugated diene formation” value is reported as “demonstrate such activity”.
For `C[C@]12CCC(=O)C=C1CC[C@@H]1C2=CC[C@@]2(C)[C@H]1CC[C@]2(O)C(=O)CN1CCN(c2cc(N3CCOCC3)nc(N3CCOCC3)n2)CC1` [Example 105, 21-[4-(2,6-Bis(4-morpholino)-4-pyrimidinyl)-1-piperazinyl]-17α-hydroxypregna-4,9(11)-diene-3,20-dione dihydrochloride, hydrate], the “inhibition of interleukin 1” value in experiment [2] is recorded as “demonstrate inhibition of interleukin 1”. The inhibition of angiogenesis entry in experiment [4] was “demonstrate inhibition of angiogenesis”. Besides, in experiment [5], the “inhibition of mucous secretion” value is given as “demonstrate such activity” and the “preferred mucous inhibitors per test results” value is recorded as “preferred mucous inhibitors”.
Take `C[C@@H]1C[C@H]2[C@@H]3CCC4=CC(=O)C=C[C@]4(C)C3=CC[C@]2(C)[C@H]1C(=O)CN1CCN(c2cc(N3CCOCC3)nc(N3CCOCC3)n2)CC1` [Example 86, 16α-methyl-21-[4-[2,6-bis(4-morpholino)-4-pyrimidinyl]-1-piperazinyl]pregna-1,4,9(11)-triene-3,20-dione]: the “inhibition of conjugated diene formation” value in experiment [1] is “demonstrate such activity”. For the same compound, the “inhibition of interleukin 1” value in experiment [2] is listed as “demonstrate inhibition of interleukin 1”. Besides, the “inhibition of MDA formation” value in experiment [3] was “demonstrate such activity”. Moreover, the inhibition of angiogenesis result in experiment [4] is “demonstrate inhibition of angiogenesis”.
As to `CC(CN1CCN(c2cc(N3CCCC3)nc(N3CCCC3)n2)CC1)[C@H]1CC[C@H]2[C@@H]3CCC4=CC(=O)C=C[C@]4(C)[C@H]3CC[C@]12C.CS(=O)(=O)O.O` (stereo partly shown) [Example 112, 21-[4-(2,6-Bis(1-pyrrolidinyl)-4-pyrimidinyl)-1-piperazinyl]-20-methylpregna-1,4-dien-3-one methanesulfonate, hydrate], the “inhibition of conjugated diene formation” value in experiment [1] is on record as “demonstrate such activity”.
Take `CS(=O)(=O)O.C[C@]12CCC(=O)C=C1CC[C@@H]1C2=CC[C@@]2(C)[C@H]1CC[C@]2(O)C(=O)CN1CCN(c2ccccn2)CC1` [Example 2, 17α-Hydroxy-21-[4-(2-pyridinyl)-1piperazinyl]pregna-4,9(11)-diene-3,20di-one methanesulfonate]: the “arachidonic acid antagonism” value in experiment [6] is reported as “demonstrate arachidonic acid antagonism”. In experiment [1], the “inhibition of conjugated diene formation” value is “demonstrate such activity”. Also, the “% of Embryos with 4 mm or Greater A vascular Zone” value in experiment [4] (50 μg/10 μl in the presence of heparin) came to 85%. Moreover, in experiment [5], the “inhibition of mucous secretion” value is recorded as “demonstrate such activity” and the “preferred mucous inhibitors per test results” value is recorded as “preferred mucous inhibitors”.
Take `C[C@@H]1C[C@H]2[C@@H]3CCC4=CC(=O)C=C[C@]4(C)[C@H]3[C@H](O)C[C@]2(C)[C@H]1C(=O)CN1CCN(c2cc(N3CCCC3)nc(N3CCCC3)n2)CC1` [Example 84, 11α-hydroxy-16α-methyl-21-[4-[2,6-bis(1-pyrrolidinyl)-4-pyrimidinyl]-1-piperazinyl]pregna-1,4-diene 3,20-dione]: the “inhibition of conjugated diene formation” value in experiment [1] was “demonstrate such activity”. Also, the “inhibition of interleukin 1” value in experiment [2] is on record as “demonstrate inhibition of interleukin 1”.
Regarding `C[C@]12C=CC(=O)C=C1CC[C@@H]1C2=CC[C@]2(C)[C@@H](C(=O)CN3CCN(c4cc(N5CCCC5)nc(N5CCCC5)n4)CC3)CC[C@@H]12.Cl.Cl` [Example 111, 21-[4-(2,6-Bis(1-pyrrolidinyl)-4-pyrimidinyl)-1-piperazinyl]pregna-1,4,9(11)-triene-3,20-dione dihydrochloride], the “inhibition of conjugated diene formation” value in experiment [1] is “demonstrate such activity”.

The values are drawn from patent USRE35053E, “Amines useful in producing pharmaceutically active CNS compounds” (The Upjohn Company, priority 1992, dated 1995).
